Tests used:
human monocytes = test: In vitro stimulation of human monocytes; assay type: cell-based; settings: LPS stimulation 24 hours, 100 μM (FIG. 10)
Experimental: The mononuclear cell fraction was isolated from the blood of healthy volunteers (Sanquin Bloodbank, Amsterdam, The Netherlands) by density centrifugation using Lymphoprep™ (Axis-Shield) and isolated using human CD14 magnetic beads and MACS® cell separation columns (Miltenyi Biotec) according to the manufacturer's instructions. Isolated primary human monocytes were counted and seeded at 1>10^6 cells/mL in 24-well plates with 1 ml medium supplemented with 10% fetal bovine serum, 100 U/ml penicillin, 100 μg/ml streptomycin, 2 mM L-glutamine. After seeding, cells were stimulated with 10 ng/ml LPS or 25 mM D-glucose (both Sigma-Aldrich) for 24 hours with/without 100 μM 6-BT. Afterwards, cells were lysed with Tripure isolation reagent (Roche) and stored at −80° C. until RNA isolation.
(§1) Total RNA was extracted from Tripure isolation reagent cell lysates. RNA was converted to cDNA by with iScript kit (BioRad). Quantitative polymerase chain reaction (qPCR) was performed using SYBR Green-SensiMix (Bioline) on a CFX384 Touch Real-Time PCR Detection System (BioRad). The delta delta Ct method was used to calculate gene expression as fold-change compared to control (unstimulated conditions).

murine DC = test: In vitro stimulation of murine dendritic cells, cytokine secretion; assay type: cell-based; settings: GM-CSF differentiated DC
Experimental: Bone marrow-derived macrophages (BMDM) and DC (BMDC) were obtained by differentiating freshly isolated BM cells from femur and tibia bones (as above described) of C57/B16 mice (N=3 per experiment). For BMDM, BM cells were seeded at 3×10^6 cells per 10 cm dish and cultured for 7 days in 12 ml RPMI1640 medium with 20% fetal bovine serum, 30% L-929 cell conditioned media, as source of murine macrophage colony-stimulating factor (M-CSF). For BMDC, BM cells were seeded at 0.5×10^6/ml cells in 25 ml in 10 cm dishes and cultured for 7 days in presence of GM-CSF in 5% FBS-RPMI1640 medium. After differentiation, BMDM/DCs were harvested, counted and seeded at a density of 1×10^5 cells per well in a F-bottom 96-well plate and left to adhere for 20 hours before experiments were performed. […]
Specific ELISAs (R&D Systems) were utilized to measure the concentration of TNFα, IFNβ, and IFNγ in cell supernatant of murine monocytes, macrophages ad T cells, respectively, according to the manufacturer's instructions. The concentration of insulin after 24-hour treatment with metabolites or after GSIS were determined using Rat insulin ELISA (Mercodia) according to the manufacturer's instructions. GSIS was calculated by subtracting the concentration of insulin at 1 mM glucose to the insulin rate at 22 mM glucose. […]

[1] = test system: human (Jurkat) CD4 T cells; test: Seahorse XF mitochondrial metabolism (OCR), Jurkat CD4 T cells; assay type: cell-based; settings: 100 uM; human (Jurkat) CD4 T cells (FIG. 22)
Experimental: (§2) Finally, it was uncovered that 6-BT also impacts the intracellular metabolism.
(§3) OCR=oxygen consumption rate, used as a proxy of cellular utilization of mitochondrial oxidative phosphorylation. OCR was measured using a Seahorse XF Analyzer Uchimura T., The Innate Immune Sensor NLRC3 Acts as a Rheostat that Fine-Tunes T Cell Responses in Infection and Autoimmunity. Immunity 2019; Chou, AIM2 in regulatory T cells restrains autoimmune diseases, Nature 2021.

INS1E cells = test: In vitro stimulation of pancreatic beta cells: gene expression and insulin secretion; assay type: cell-based, rat
Experimental: INS1E cells (rat pancreatic beta-cell line) were maintained in complete RPMI1640 supplemented with 5% Fetal Bovine Serum, 2 mM L-glutamine, 5 μM beta-mercaptoethanol, 1 mM sodium pyruvate, 10 mM HEPES, 100 units/ml of penicillin and 100 μg/ml streptomycin. INSIE cells were seeded in 48-well plates at a density of 1×10^5 cells per well and left resting for one day. Subsequently, medium was replaced with 0.5 ml/well of INS1E complete RPMI1640 medium containing vehicle or the metabolites: 6-BT (1/10/25 μM), LysoPC(20:0) (5/10/50 μM), or MA-GPC (10/50/100 μM). After 24 hours, cells and supernatant were harvested for further analysis (gene expression and insulin secretion, respectively) and stored at −80° C. Cells were lysed in Tripure isolation reagent (Roche) before storage.
For glucose-stimulated insulin secretion (GSIS) assay, cells were preincubated in a Krebs-Ringer bicarbonate buffer (KRB) [115 mM NaCl, 5 mM KCl, 2.56 mM CaCl2), 1 mM MgCl2, 10 mM NaHCO3, 15 mM HEPES, and 0.3% of BSA (pH 7.4)] for 30 min at 37° C., following by stimulation with 1 mM glucose in KRB for 1 hour (0.5 ml/well) and stimulation with 22 mM glucose in KRB for another hour (0.5 ml/well) at 37° C. Supernatant was recovered after treatment with 1 mM glucose (Sigma-Aldrich) and 22 mM glucose and cells stored at −80° C. GSIS was performed on beta cells after treatment for 24-hour treatment with 10 μM 6-BT.
Specific ELISAs (R&D Systems) were utilized to measure the concentration of TNFα, IFNβ, and IFNγ in cell supernatant of murine monocytes, macrophages ad T cells, respectively, according to the manufacturer's instructions. The concentration of insulin after 24-hour treatment with metabolites or after GSIS were determined using Rat insulin ELISA (Mercodia) according to the manufacturer's instructions. GSIS was calculated by subtracting the concentration of insulin at 1 mM glucose to the insulin rate at 22 mM glucose.
as §1
Given the positive association between plasma 6-BT levels and C-peptide concentrations (found in the clinical study), it was then questioned whether 6-BT can exert a direct effect on beta cells. Indeed, it is seen here that 6-BT induces, in IS1E beta cells, the gene expression of the transcription factors PDX1 and MAFA, which are important for beta cell maturation and functionality.

NF-kB pathway = test: Phosphorylated p65 subunit after PMA/ionomycin activation, Jurkat cells; assay type: cell-based; settings: human Jurkat cells; PMA 50 μg/ml and ionomycin 1 μg/ml; 5-10 minutes after activation (FIG. 18)
Experimental: Seeking for the molecular mechanism(s) underlying 6-BT actions, 6-BT impact on the activation of the NF-kB pathway, a central pathway in all inflammatory diseases (beyond autoimmunity) was checked first. […] Upon T cell activation with PMA ([…]) and ionomycin (1 μg/ml), 6-BT could inhibit, at very early time-points (5-10 minutes after activation), the NF-kB signaling. This effect was found in both murine and human (Jurkat cells) CD4 T cells.

murine CD4 T cells = test: Seahorse XF mitochondrial metabolism (OCR), murine CD4 T cells; assay type: cell-based; settings: 100 uM; murine CD4 T cells (FIG. 22)
Experimental: as §2, §3

N[C@@H](Cc1c[nH]c2cc(Br)ccc12)C(=O)O [6-BT, 6-bromotryptophan]
cytokine production by human monocytes (human monocytes): reduces cytokine production | secretion of IFNbeta by DC (murine DC; TLR3 activation with 10 μg/ml poly(I.C) (FIG. 15)): inhibits the secretion | secretion of TNFα by DC (murine DC; TLR4 activation with 100 μg/ml LPS (FIG. 15)): inhibits the secretion | mitochondrial metabolism (OCR) [1]: promotes the mitochondrial metabolism | pancreatic beta-cell function (INS1E cells; INS1e beta-cells treated for 24 hours, beta cell differentiation markers (FIGS. 12 and 13)): enhances pancreatic beta-cell function | gene expression of the transcription factor MAFA (INS1E cells; beta cells (FIG. 17)): induces | gene expression of the transcription factor PDX1 (INS1E cells; beta cells (FIG. 17)): induces | insulin secretion at steady-state (INS1E cells; beta cells, 24-hour treatment (FIG. 17)): promotes insulin secretion | glucose-stimulated insulin secretion (INS1E cells; difference between insulin release at 1 mM and 22 mM glucose, 24-hour treatment with 10 μM): promotes insulin secretion | NF-kB signaling (phosphorylated p65 subunit) (NF-kB pathway): could inhibit | mitochondrial metabolism (OCR) (murine CD4 T cells): promotes the mitochondrial metabolism

From patent US12648928B2, “Intervention strategy for prevention or treatment of diabetes mellitus, autoimmune disease, inflammatory disease or cardiovascular disease” (ACADEMISCH MEDISCH CENTRUM, priority 2020, dated 2026)
